Columns and labels:
REDROOT PIGWEED = experiment: Test E; assay type: in vivo, Amaranthus retroflexus
PERSN SPEEDWELL = experiment: Test E; assay type: in vivo, Veronica persica
WILD BUCKWHEAT = experiment: Test E; assay type: in vivo, Polygonum convolvulus
WILD RADISH = experiment: Test E; assay type: in vivo, Raphanus raphanistrum
G4646 CORN = experiment: Test D Corn and Sorghum Herbicide Test; assay type: in vivo, Zea mays
GREEN FOXTAIL = experiment: Test D; assay type: in vivo, Setaria viridis
GIANT FOXTAIL = experiment: Test D; assay type: in vivo, Setaria faberii
FALL PANICUM = experiment: Test D; assay type: in vivo, Panicum dichotomiflorum
BARNYARDGRASS = experiment: Test D; assay type: in vivo, Echinochloa crus-galli
Method: (§1) The Corn and Sorghum Herbicide Test included the following species in both the preemergence and postemergence evaluations:
(§2) Postemergence plantings were grown in Sassafras sandy loam soil. Corn and soybeans were grown in separate 25 cm diameter containers. Sorghum and the seven grass weed species were grown in two 18 cm diameter containers, 4 species per container. The seven broadleaf weed species were also grown in two 18 cm diameter containers, 4 species in one container, 3 species in the second container. One additional planting of corn in an 18 cm diameter container was made. The soil surface of this additional container of corn was covered with the absorbent, perlite, before spray treatment so that test chemicals would enter the plant only via the foliage. The plants were grown 10-21 days, dependent upon the species and then sprayed postemergence with the test chemicals dissolved in a nonpytotoxic solvent.
(§3) Preemergence plantings were grown in fertilized Tama silt loam soil. These plantings are identical to those described in the postemergence section, with the exception of the corn planting having perlite covering the soil surface. These plantings were made the day of or the day before spraying the test chemicals dissolved in a nonphytotoxic solvent.
(§4) Treated plants and controls were maintained in the greenhouse for 2 to 4 weeks. Visual planting response ratings were made on a percentage scale of 0 to 100 in comparison with a control where 0=no injury, and 100=death.

G522 SORGHUM = experiment: Test D; assay type: in vivo, Sorghum bicolor
PURPLE NUTSEDGE = experiment: Test D; assay type: in vivo, Cyperus rotundus
VELVETLEAF = experiment: Test D; assay type: in vivo, Abutilon theophrasti
Method: as §1, §2, §3, §4

COCKLEBUR = experiment: Test D; assay type: in vivo, Xanthium pensylvanicum
LAMBSQUARTER = experiment: Test D; assay type: in vivo, Chenopodium album

C=C(c1ccc(Cl)cc1Cl)C(O)(Cn1cncn1)c1ccccc1F (stereo not drawn) [Example 107] gave a plant response (REDROOT PIGWEED; PREEMERGENCE 0250 GM/HA) of 100%, a plant response (PERSN SPEEDWELL; PREEMERGENCE 0250 GM/HA) of 100% and a plant response (WILD BUCKWHEAT; PREEMERGENCE 0250 GM/HA) of 0%. It also gave a plant response (WILD RADISH; PREEMERGENCE 0250 GM/HA) of 60%.
C=C(c1ccccc1)C(O)(Cn1cncn1)c1ccc(Cl)cc1 (stereo not drawn) [Example 51, 2-(4-Chlorophenyl)-3-phenyl-1-(1H-1,2,4-triazol-1-yl)-3-buten-2-ol] gave a plant response (REDROOT PIGWEED; POSTEMERGENCE 0064 GM/HA) of 30%, a plant response (REDROOT PIGWEED; POSTEMERGENCE 0125 GM/HA) of 50% and a plant response (REDROOT PIGWEED; POSTEMERGENCE 0250 GM/HA) of 60%. It also gave a plant response (REDROOT PIGWEED; POSTEMERGENCE 0500 GM/HA) of 90%, a plant response (REDROOT PIGWEED; PREEMERGENCE 0500 GM/HA) of 70% and a plant response (PERSN SPEEDWELL; POSTEMERGENCE 0064 GM/HA) of 0%. For the same compound, the plant response (PERSN SPEEDWELL; POSTEMERGENCE 0125 GM/HA) was 0%, the plant response (PERSN SPEEDWELL; POSTEMERGENCE 0250 GM/HA) was 20% and the plant response (PERSN SPEEDWELL; POSTEMERGENCE 0500 GM/HA) was 40%. For the same compound, the plant response (PERSN SPEEDWELL; PREEMERGENCE 0500 GM/HA) was 20%, the plant response (WILD BUCKWHEAT; POSTEMERGENCE 0064 GM/HA) was 0% and the plant response (WILD BUCKWHEAT; POSTEMERGENCE 0125 GM/HA) was 0%. It also gave a plant response (WILD BUCKWHEAT; POSTEMERGENCE 0250 GM/HA) of 0%, a plant response (WILD BUCKWHEAT; POSTEMERGENCE 0500 GM/HA) of 0% and a plant response (WILD BUCKWHEAT; PREEMERGENCE 0500 GM/HA) of 0%. It also gave a plant response (WILD RADISH; POSTEMERGENCE 0064 GM/HA) of 0%, a plant response (WILD RADISH; POSTEMERGENCE 0125 GM/HA) of 30% and a plant response (WILD RADISH; POSTEMERGENCE 0250 GM/HA) of 30%. For the same compound, the plant response (WILD RADISH; POSTEMERGENCE 0500 GM/HA) was 60% and the plant response (WILD RADISH; PREEMERGENCE 0500 GM/HA) was 0%.
In the case of C=C(c1ccccc1Cl)C(O)(Cn1cncn1)c1ccc(F)cc1F (stereo not drawn) [Example 35], the plant response (G4646 CORN; POSTEMERGENCE 0250 GM/HA) is reported as 0%, the plant response (G4646 CORN; POSTEMERGENCE 0500 GM/HA) is reported as 0% and the plant response (G4646 CORN; PREEMERGENCE 0064 GM/HA) is reported as 0%. It also gave a plant response (G4646 CORN; PREEMERGENCE 0125 GM/HA) of 0%, a plant response (G4646 CORN; PREEMERGENCE 0250 GM/HA) of 0% and a plant response (G4646 CORN; PREEMERGENCE 0500 GM/HA) of 0%. The plant response (GREEN FOXTAIL; POSTEMERGENCE 0250 GM/HA) was 0%, the plant response (GREEN FOXTAIL; POSTEMERGENCE 0500 GM/HA) was 40% and the plant response (GREEN FOXTAIL; PREEMERGENCE 0064 GM/HA) was 30%. For the same compound, the plant response (GREEN FOXTAIL; PREEMERGENCE 0125 GM/HA) was 70%, the plant response (GREEN FOXTAIL; PREEMERGENCE 0250 GM/HA) was 80% and the plant response (GREEN FOXTAIL; PREEMERGENCE 0500 GM/HA) was 100%. It also gave a plant response (GIANT FOXTAIL; POSTEMERGENCE 0250 GM/HA) of 0%, a plant response (GIANT FOXTAIL; POSTEMERGENCE 0500 GM/HA) of 60% and a plant response (GIANT FOXTAIL; PREEMERGENCE 0064 GM/HA) of 0%. For the same compound, the plant response (GIANT FOXTAIL; PREEMERGENCE 0125 GM/HA) was 50%, the plant response (GIANT FOXTAIL; PREEMERGENCE 0250 GM/HA) was 80% and the plant response (GIANT FOXTAIL; PREEMERGENCE 0500 GM/HA) was 100%. It also gave a plant response (FALL PANICUM; PREEMERGENCE 0064 GM/HA) of 0%, a plant response (FALL PANICUM; PREEMERGENCE 0125 GM/HA) of 50% and a plant response (FALL PANICUM; PREEMERGENCE 0250 GM/HA) of 80%. It also gave a plant response (FALL PANICUM; PREEMERGENCE 0500 GM/HA) of 100%, a plant response (BARNYARDGRASS; POSTEMERGENCE 0250 GM/HA) of 40% and a plant response (BARNYARDGRASS; POSTEMERGENCE 0500 GM/HA) of 60%. The plant response (BARNYARDGRASS; PREEMERGENCE 0064 GM/HA) was 0%, the plant response (BARNYARDGRASS; PREEMERGENCE 0125 GM/HA) was 60% and the plant response (BARNYARDGRASS; PREEMERGENCE 0250 GM/HA) was 40%. The plant response (BARNYARDGRASS; PREEMERGENCE 0500 GM/HA) was 100%, the plant response (G522 SORGHUM; POSTEMERGENCE 0250 GM/HA) was 0% and the plant response (G522 SORGHUM; POSTEMERGENCE 0500 GM/HA) was 50%. For the same compound, the plant response (G522 SORGHUM; PREEMERGENCE 0064 GM/HA) was 0%, the plant response (G522 SORGHUM; PREEMERGENCE 0125 GM/HA) was 0% and the plant response (G522 SORGHUM; PREEMERGENCE 0250 GM/HA) was 0%. For the same compound, the plant response (G522 SORGHUM; PREEMERGENCE 0500 GM/HA) was 0%, the plant response (PURPLE NUTSEDGE; POSTEMERGENCE 0250 GM/HA) was 0% and the plant response (PURPLE NUTSEDGE; POSTEMERGENCE 0500 GM/HA) was 0%. The plant response (PURPLE NUTSEDGE; PREEMERGENCE 0125 GM/HA) was 0%, the plant response (PURPLE NUTSEDGE; PREEMERGENCE 0250 GM/HA) was 0% and the plant response (PURPLE NUTSEDGE; PREEMERGENCE 0500 GM/HA) was 50%. For the same compound, the plant response (VELVETLEAF; POSTEMERGENCE 0250 GM/HA) was 60%, the plant response (VELVETLEAF; POSTEMERGENCE 0500 GM/HA) was 90% and the plant response (VELVETLEAF; PREEMERGENCE 0064 GM/HA) was 60%. It also gave a plant response (VELVETLEAF; PREEMERGENCE 0125 GM/HA) of 70%, a plant response (VELVETLEAF; PREEMERGENCE 0250 GM/HA) of 100% and a plant response (VELVETLEAF; PREEMERGENCE 0500 GM/HA) of 100%. It also gave a plant response (COCKLEBUR; POSTEMERGENCE 0250 GM/HA) of 0%, a plant response (COCKLEBUR; POSTEMERGENCE 0500 GM/HA) of 30% and a plant response (COCKLEBUR; PREEMERGENCE 0064 GM/HA) of 0%. The plant response (COCKLEBUR; PREEMERGENCE 0125 GM/HA) was 0%, the plant response (COCKLEBUR; PREEMERGENCE 0250 GM/HA) was 0% and the plant response (COCKLEBUR; PREEMERGENCE 0500 GM/HA) was 20%. It also gave a plant response (LAMBSQUARTER; POSTEMERGENCE 0250 GM/HA) of 0%, a plant response (LAMBSQUARTER; POSTEMERGENCE 0500 GM/HA) of 20% and a plant response (LAMBSQUARTER; PREEMERGENCE 0064 GM/HA) of 30%. It also gave a plant response (LAMBSQUARTER; PREEMERGENCE 0125 GM/HA) of 30%, a plant response (LAMBSQUARTER; PREEMERGENCE 0250 GM/HA) of 60% and a plant response (LAMBSQUARTER; PREEMERGENCE 0500 GM/HA) of 80%.

Reference: patent US4965280A, “Antifungal carbinols” (E. I. Du Pont de Nemours and Company, priority 1989, dated 1990)
